# Measurements published in the supplement of paper PMC10307832.
# How the values were obtained:
# Assay in all cases: relative viability (nuclei count vs DMSO), 5 days (fraction); higher = more cells survive
# Venetoclax + OSI-027 = compound: CC1(C)CCC(CN2CCN(c3ccc(C(=O)NS(=O)(=O)c4ccc(NCC5CCOCC5)c([N+](=O)[O-])c4)c(Oc4cnc5[nH]ccc5c4)c3)CC2)=C(c2ccc(Cl)cc2)C1 [Venetoclax] + COc1cccc2cc(-c3nc([C@H]4CC[C@H](C(=O)O)CC4)n4ncnc(N)c34)[nH]c12 [OSI-027] (partner 0.5 µM)
# Outline: (§1)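 Relative viability is defined as nuclei in treated wells over nuclei in vehicle wells. Duplicate plates were run and medians reported. Lung cancer cell lines in 1536-well plates were dosed by pin tool one day after seeding, with one drug or with a fixed anchor-drug dose plus five library-drug doses (not always all listed) in √10 steps, and nuclei were counted after 5 days.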
# Venetoclax + Linsitinib = compound: CC1(C)CCC(CN2CCN(c3ccc(C(=O)NS(=O)(=O)c4ccc(NCC5CCOCC5)c([N+](=O)[O-])c4)c(Oc4cnc5[nH]ccc5c4)c3)CC2)=C(c2ccc(Cl)cc2)C1 [Venetoclax] + C[C@]1(O)C[C@@H](c2nc(-c3ccc4ccc(-c5ccccc5)nc4c3)c3c(N)nccn32)C1 [Linsitinib] (partner 1 µM)
# Outline: as §1
# Venetoclax + Phenformin = compound: CC1(C)CCC(CN2CCN(c3ccc(C(=O)NS(=O)(=O)c4ccc(NCC5CCOCC5)c([N+](=O)[O-])c4)c(Oc4cnc5[nH]ccc5c4)c3)CC2)=C(c2ccc(Cl)cc2)C1 [Venetoclax] + N=C(N)NC(=N)NCCc1ccccc1 [Phenformin] (partner 250 µM)
# Outline: as §1
# Selumetinib + Luminespib = compound: Cn1cnc2c(F)c(Nc3ccc(Br)cc3Cl)c(C(=O)NOCCO)cc21 [Selumetinib] + CCNC(=O)c1noc(-c2cc(C(C)C)c(O)cc2O)c1-c1ccc(CN2CCOCC2)cc1 [Luminespib] (partner 0.01 µM)
# Outline: as §1
Cell Line,relative viability (Venetoclax + OSI-027; first compound 0.01 µM),relative viability (Venetoclax + OSI-027; first compound 0.03162 µM),relative viability (Venetoclax + OSI-027; first compound 0.1 µM),relative viability (Venetoclax + OSI-027; first compound 0.3162 µM),relative viability (Venetoclax + OSI-027; first compound 1 µM),relative viability (Venetoclax + Linsitinib; first compound 0.01 µM),relative viability (Venetoclax + Linsitinib; first compound 0.03162 µM),relative viability (Venetoclax + Linsitinib; first compound 0.1 µM),relative viability (Venetoclax + Linsitinib; first compound 0.3162 µM),relative viability (Venetoclax + Linsitinib; first compound 1 µM),relative viability (Venetoclax + Phenformin; first compound 0.01 µM),relative viability (Venetoclax + Phenformin; first compound 0.03162 µM),relative viability (Venetoclax + Phenformin; first compound 0.1 µM),relative viability (Venetoclax + Phenformin; first compound 0.3162 µM),relative viability (Venetoclax + Phenformin; first compound 1 µM),relative viability (Selumetinib + Luminespib; first compound 0.02 µM),relative viability (Selumetinib + Luminespib; first compound 0.06325 µM),relative viability (Selumetinib + Luminespib; first compound 0.2 µM),relative viability (Selumetinib + Luminespib; first compound 0.6325 µM)
NCI-H2347,0.32,0.417,0.377,0.485,0.372,0.93,0.953,1.01,0.958,0.95,0.316,0.449,0.433,0.424,0.33,0.431,0.287,0.272,0.332
LC-2-ad,1.01,0.934,0.72,0.905,0.845,0.807,0.904,0.785,0.848,0.798,0.595,0.606,0.551,0.616,0.565,0.912,0.882,0.88,0.83
NCI-H661,0.682,0.789,0.705,0.681,0.617,0.676,0.662,0.551,0.703,0.567,0.298,0.278,0.291,0.28,0.262,0.977,0.929,0.942,0.864
SK-MES-1,0.61,0.626,0.599,0.572,0.518,0.995,1.09,1.07,1.06,0.963,0.616,0.685,0.69,0.601,0.511,0.74,0.559,0.344,0.375
NCI-H2126,0.691,0.794,0.719,0.692,0.636,0.792,0.733,0.695,0.741,0.689,0.528,0.56,0.513,0.582,0.51,0.839,0.756,0.792,0.782
EPLC-272H,0.284,0.294,0.281,0.292,0.3,–,1.31,1.06,1.45,1.07,0.353,0.312,0.286,0.321,0.295,0.22,0.276,0.203,0.171
PC-14,0.735,0.875,0.696,0.855,0.722,0.925,0.993,1.04,0.818,0.811,0.562,0.747,0.717,0.709,0.499,0.147,0.177,0.163,0.151
NCI-H520,0.262,0.287,0.209,0.253,0.217,1.04,0.935,0.911,0.969,0.902,0.477,0.507,0.554,0.566,0.519,0.226,0.215,0.213,0.238
LXF-289,0.753,0.857,0.881,0.771,0.623,0.973,0.955,0.895,0.932,0.856,0.482,0.538,0.509,0.503,0.505,0.692,0.688,0.491,0.544
NCI-H441,0.569,0.566,0.608,0.575,0.553,0.445,0.716,0.568,0.482,0.511,0.83,0.706,0.787,0.805,0.868,0.25,0.272,0.204,0.28
NCI-H596,0.704,0.748,0.694,0.748,0.587,1.03,1.09,1.1,1.13,1.11,0.818,0.665,0.649,0.809,0.659,1.13,1.06,0.914,0.725
NCI-H727,0.68,0.762,0.525,0.63,0.723,0.334,0.344,0.201,0.293,0.296,0.509,0.63,0.504,0.625,0.526,0.257,0.241,0.206,0.267
NCI-H838,0.493,0.405,0.37,0.377,0.435,1.11,1.03,1.01,1.03,0.938,0.63,0.591,0.448,0.636,0.507,0.369,0.331,0.207,0.259
NCI-H1793,0.299,0.37,0.207,0.239,0.186,0.905,1.04,0.692,0.818,0.778,0.457,0.354,0.271,0.36,0.303,0.15,0.163,0.154,0.184
NCI-H1792,0.695,0.751,0.603,0.638,0.721,0.469,0.46,0.467,0.408,0.591,0.263,0.258,–,0.254,0.246,0.387,0.408,0.379,0.313
NCI-H1355,0.409,0.5,0.38,0.386,0.355,0.812,0.814,0.778,0.792,0.753,0.436,0.474,0.467,0.468,0.412,0.665,0.736,0.6,0.476
HARA,0.427,0.571,0.452,0.427,0.362,0.833,0.93,0.911,0.927,0.928,0.415,0.406,0.464,0.467,0.447,0.708,0.783,0.536,0.168
